Results from PubChem BioAssay AID248 (DTP/NCI, 2004).
Toxic doses and inconclusive results are not listed. No stated cut-off is given here; in the data, active means T/C of 150% or more; inactive means T/C below 125%. Square brackets hold non-standard residues; d marks the D form. Peptide text beside a SMILES is read from it. ξ: configuration not given here. ξK = NCCCCC(N)C(=O)O

Test system: L1210 leukemia ip in BDF1 mice, survival T/C
Experiment: NCI In Vivo Anticancer Drug Screen. Data for tumor model L1210 Leukemia (intraperitoneal) in B6D2F1 (BDF1) mice
Settings: endpoint: mean survival time, higher = longer survival
Method in brief: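 Read-out is survival time, reported as the treated-group measurement over the vehicle-control measurement.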

[1] = dose: 100.0 mg/kg/injection, schedule: Q01DX009 (ip), vehicle: saline with Tween-80
[2] = dose: 200.0 mg/kg/injection, schedule: Q01DX009 (ip), vehicle: saline
[3] = dose: 100.0 mg/kg/injection, schedule: Q01DX001 (ip), vehicle: saline
[4] = dose: 200.0 mg/kg/injection, schedule: Q01DX001 (ip), vehicle: saline
[5] = dose: 400.0 mg/kg/injection, schedule: Q01DX001 (ip), vehicle: saline
[6] = dose: 100.0 mg/kg/injection, schedule: Q01DX001 (ip), vehicle: Klucel (hydroxypropylcellulose) (HPC)
[7] = dose: 200.0 mg/kg/injection, schedule: Q01DX001 (ip), vehicle: Klucel (hydroxypropylcellulose) (HPC)
[8] = dose: 50.0 mg/kg/injection, schedule: Q01DX001 (ip), vehicle: Klucel (hydroxypropylcellulose) (HPC)

Measured: T/C

N=C(N)c1ccc(OCCCCCOc2ccc(C(=N)N)cc2)cc1
inactive: dose: 12.5 mg/kg/injection, schedule: Q01DX Z (oral), vehicle: saline 95 % of control | dose: 25.0 mg/kg/injection, schedule: Q01DX Z (oral), vehicle: saline 95 % of control | dose: 50.0 mg/kg/injection, schedule: Q01DX Z (oral), vehicle: saline 100 % of control | dose: 100.0 mg/kg/injection, schedule: Q01DX Z (oral), vehicle: saline 100 % of control

CC(=O)Nc1ccc(/C=N/NC(=O)CNC(=O)Nc2cccc(Cl)c2Cl)cc1
inactive: dose: 50.0 mg/kg/injection, schedule: Q01DX009 (ip), vehicle: saline with Tween-80 121 % of control | [1] 90 % of control | dose: 200.0 mg/kg/injection, schedule: Q01DX009 (ip), vehicle: saline with Tween-80 88 % of control

Nc1nc(N)c(-c2ccc(Cl)cc2)c(CN2C(=O)c3ccccc3C2=O)n1
inactive: dose: 75.0 mg/kg/injection, schedule: Q01DX001 (ip), vehicle: Klucel (hydroxypropylcellulose) (HPC) 97 % of control | dose: 150.0 mg/kg/injection, schedule: Q01DX001 (ip), vehicle: Klucel (hydroxypropylcellulose) (HPC) 92 % of control | dose: 300.0 mg/kg/injection, schedule: Q01DX001 (ip), vehicle: Klucel (hydroxypropylcellulose) (HPC) 92 % of control

CC(=O)OCC1OC(n2cc(F)c(=O)[nH]c2=O)CC1OC(C)=O (centres undefined)
inactive: dose: 3.0 mg/kg/injection, schedule: Q01DX009 (ip), vehicle: saline 98 % of control | dose: 6.0 mg/kg/injection, schedule: Q01DX009 (ip), vehicle: saline 95 % of control | dose: 12.0 mg/kg/injection, schedule: Q01DX009 (ip), vehicle: saline 95 % of control | dose: 24.0 mg/kg/injection, schedule: Q01DX009 (ip), vehicle: saline 106 % of control | dose: 25.0 mg/kg/injection, schedule: Q01DX009 (ip), vehicle: saline 111 % of control | dose: 50.0 mg/kg/injection, schedule: Q01DX009 (ip), vehicle: saline 122 % of control | [2] 123 % of control

C[N+]1(CCCCCNC2=CC(=O)C(NCCCCC[N+]3(C)CCCCC3)=CC2=O)CCCCC1
inactive: dose: 0.1 mg/kg/injection, schedule: Q01DX001 (ip), vehicle: saline 96 % of control

CC1=CC(=O)c2c(O)ccc(O)c2C1=O
inactive: dose: 2.5 mg/kg/injection, schedule: Q04DX003 (ip), vehicle: other 95 % of control | dose: 5.0 mg/kg/injection, schedule: Q01DX001 (ip), vehicle: saline 101 % of control | dose: 5.0 mg/kg/injection, schedule: Q04DX003 (ip), vehicle: other 103 % of control | dose: 10.0 mg/kg/injection, schedule: Q01DX001 (ip), vehicle: saline 97 % of control | dose: 10.0 mg/kg/injection, schedule: Q04DX003 (ip), vehicle: other 94 % of control | dose: 20.0 mg/kg/injection, schedule: Q01DX001 (ip), vehicle: saline 100 % of control | dose: 40.0 mg/kg/injection, schedule: Q01DX001 (ip), vehicle: saline 102 % of control

CCC(C)c1cccc2c(C(CC)CC)cccc12 (centres undefined)
inactive: [3] 104 % of control | [4] 106 % of control | [5] 112 % of control

CC(=O)Nc1ccc(NCN2C(=O)c3ccccc3C2=O)cc1
inactive: dose: 100.0 mg/kg/injection, schedule: Q04DX003 (ip), vehicle: Klucel (hydroxypropylcellulose) (HPC) 100 % of control | dose: 200.0 mg/kg/injection, schedule: Q04DX003 (ip), vehicle: Klucel (hydroxypropylcellulose) (HPC) 97 % of control | dose: 400.0 mg/kg/injection, schedule: Q04DX003 (ip), vehicle: Klucel (hydroxypropylcellulose) (HPC) 97 % of control

O=[N+]([O-])c1cccc(C=Nc2cc(Cl)ccc2Cl)c1
inactive: dose: 75.0 mg/kg/injection, schedule: Q04DX003 (ip), vehicle: Klucel (hydroxypropylcellulose) (HPC) 106 % of control | [6] 101 % of control | dose: 150.0 mg/kg/injection, schedule: Q04DX003 (ip), vehicle: Klucel (hydroxypropylcellulose) (HPC) 95 % of control | [7] 107 % of control | dose: 300.0 mg/kg/injection, schedule: Q04DX003 (ip), vehicle: Klucel (hydroxypropylcellulose) (HPC) 98 % of control | dose: 400.0 mg/kg/injection, schedule: Q01DX001 (ip), vehicle: Klucel (hydroxypropylcellulose) (HPC) 102 % of control

C=CC(O)c1ccccc1 (centres undefined)
inactive: dose: 75.0 mg/kg/injection, schedule: Q01DX009 (ip), vehicle: saline with Tween-80 90 % of control | dose: 75.0 mg/kg/injection, schedule: Q04DX003 (ip), vehicle: saline with Tween-80 89 % of control | dose: 150.0 mg/kg/injection, schedule: Q01DX009 (ip), vehicle: saline with Tween-80 87 % of control | dose: 150.0 mg/kg/injection, schedule: Q04DX003 (ip), vehicle: saline with Tween-80 109 % of control | dose: 300.0 mg/kg/injection, schedule: Q01DX009 (ip), vehicle: saline with Tween-80 88 % of control | dose: 300.0 mg/kg/injection, schedule: Q04DX003 (ip), vehicle: saline with Tween-80 105 % of control

OC12CCCCC1Oc1ccc3ccccc3c12 (centres undefined)
inactive: [3] 103 % of control | [4] 113 % of control | [5] 100 % of control

CC(C)(C)N1C=C(c2ccccc2)N=CC1(c1ccccc1)C(C)(C)C (centres undefined)
inactive: dose: 50.0 mg/kg/injection, schedule: Q04DX002 (ip), vehicle: saline with Tween-80 99 % of control | dose: 100.0 mg/kg/injection, schedule: Q04DX002 (ip), vehicle: Klucel (hydroxypropylcellulose) (HPC) 92 % of control | dose: 100.0 mg/kg/injection, schedule: Q04DX002 (ip), vehicle: saline with Tween-80 99 % of control | dose: 200.0 mg/kg/injection, schedule: Q04DX002 (ip), vehicle: Klucel (hydroxypropylcellulose) (HPC) 100 % of control | dose: 200.0 mg/kg/injection, schedule: Q04DX002 (ip), vehicle: saline with Tween-80 99 % of control | dose: 400.0 mg/kg/injection, schedule: Q04DX002 (ip), vehicle: Klucel (hydroxypropylcellulose) (HPC) 103 % of control

O=[P+](O)C(O)c1ccccc1 (centres undefined)
inactive: dose: 100.0 mg/kg/injection, schedule: Q01DX009 (ip), vehicle: saline 95 % of control | [2] 95 % of control | dose: 400.0 mg/kg/injection, schedule: Q01DX009 (ip), vehicle: saline 95 % of control

COc1c(O)c(O)cc2c[n+]3ccccc3c(C)c12
inactive: dose: 50.0 mg/kg/injection, schedule: Q01DX009 (ip), vehicle: Klucel (hydroxypropylcellulose) (HPC) 95 % of control

CCOC(=O)NN(C)c1c(C)cccc1C
inactive: [8] 96 % of control | [6] 106 % of control | [7] 104 % of control

CNc1nc(Cl)cc2c1ncn2C1OC(CO)C(O)C1O (centres undefined)
inactive: dose: 100.0 mg/kg/injection, schedule: Q01DX005 (ip), vehicle: saline 100 % of control | dose: 200.0 mg/kg/injection, schedule: Q01DX005 (ip), vehicle: saline 100 % of control

CCCCCCCCCCCCN (tested in a mixture with another compound)
inactive: dose: 87.5 mg/kg/injection, schedule: Q01DX001 (ip), vehicle: Klucel (hydroxypropylcellulose) (HPC) 93 % of control

Oc1ccccc1OCCOCCOc1ccccc1O
inactive: dose: 100.0 mg/kg/injection, schedule: Q04DX002 (ip), vehicle: other 90 % of control

c1ccc(Oc2ccc(-c3ccc(Oc4ccccc4)cc3)cc2)cc1
inactive: [1] 91 % of control | dose: 400.0 mg/kg/injection, schedule: Q01DX009 (ip), vehicle: saline with Tween-80 91 % of control

Nc1ncnc2nc(-c3ccc(-c4ccccc4)cc3)[nH]c12
inactive: [8] 92 % of control | [6] 88 % of control | [7] 97 % of control

NCCCCC(NC(=O)CN)C(=O)O (centres undefined) (H-Gly-[ξK]-OH)
inactive: [3] 101 % of control | [4] 103 % of control | [5] 95 % of control

O=C(O)CCNCC(=O)O
inactive: dose: 75.0 mg/kg/injection, schedule: Q01DX001 (ip), vehicle: saline 100 % of control | dose: 150.0 mg/kg/injection, schedule: Q01DX001 (ip), vehicle: saline 100 % of control | dose: 300.0 mg/kg/injection, schedule: Q01DX001 (ip), vehicle: saline 101 % of control
